Several values for one entry are separate records, joined by “and”; a condition that tells them apart may be missing. Equal entries are not always repeated. Where a SMILES comes first, the peptide text is derived from it. [ ]: non-standard residue; d: D form.
How the values were obtained:
[1] = in CD2Cl2; cited from earlier work
[2] = Prolyl amide cis/trans equilibrium of tetrapeptides by NMR in various solvents; format: physicochemical
Method: Conformational analysis of tetrapeptides 2-11 to 2-13 and 2-16 using NMR. […] The lower tendency of aggregation of glycosylated peptides has previously been reported (runkel et al., 1998). The NMR spectra of all tetrapeptides were measured at the same concentration (8 mM). Intramolecular hydrogen bonding was evaluated by temperature coefficient experiments in DMSO-d6 or H2O/D2O (9/1). Because exchangeable protons engaged in intramolecular hydrogen bonds are typically not influenced by strong hydrogen-bonding solvents (Kopple et al., 1969). The prolyl N-terminal geometry and turn structure were investigated by ROESY experiments (Misicka et al., 1998).
Solvent effects. In addition, the influence of different solvents on the geometry of prolyl N-terminus was studied (Table 14). […] In contrast, peptide 2-12 and reference peptide 2-16 display a solvent effect.

[3] = Prolyl amide trans/cis ratio by 1H-NMR integration (peptide mimics 3-8); format: physicochemical; details: for Experimental distribution of cis conformers / Experimental distribution of trans conformers / Cis population of prolyl N-acetyl N′-methylamides: in D2O; for Experimental distribution of cis conformers / Experimental distribution of trans conformers: 1H-NMR integration; for Trans/cis ratio Kt/c / cis % isomer: in water, 500 MHz NMR at 25 °C; for Trans/cis ratio Kt/c: ±0.04; for cis % isomer / Cis population of prolyl N-acetyl N′-methylamides: ±3%
Method: For each compound 3-6, the ratio of trans/cis isomers was calculated by integrating and averaging as many well-resolved proton signals as possible in the ^1H-NMR spectra (Table 2) (taylor et al., 2003).
The cis population of peptide mimics 7 and 8 are presented in Table 3 together with previously published data for proline analog 9 (Beausoleil and Lubell, 1996), 5-methylproline analogs 10 and 11 (Delaney and Madison, 1982) and 5-tent-butylproline analogs 12 and 13 (Beausoleil and Lubell, 1996).
(§1) Thermodynamics. The equilibrium constants for the interconversion of the cis and trans isomers of 3-6 were determined by measuring the peak area of the 1H resonance for the two isomers. Peak areas were measured with the program Spinworks 2.5. Experiments were conducted at 298-360 K. Equilibrium constants (Kt/c=trans/cis ratios) were calculated directly from the peak areas.

[4] = Kinetics of prolyl amide cis/trans isomerization by 1H-NMR inversion-magnetization transfer, Eyring plots; format: physicochemical; details: for Free energy of activation ΔG‡ cis to trans / Free energy of activation ΔG‡ trans to cis: at 298K, D2O; for Rate constant ktc (trans to cis): calculated from kct and Kt/c
Method: Kinetics of cis-trans prolyl amide bond isomerization in peptide mimics 3-6. The kinetics of cis/trans isomerization for compounds 3-6 were determined by ^1H-NMR spectroscopy inversion-magnetization transfer experiments (Perrin and Dwyer, 1990; Reimer et al., 1998) in D2O (Table 4). Because the rates for cis/trans isomerization are extremely slow in protic solvents, the inventors performed these experiments at elevated temperatures (Stein, 1993). At 83° C., the trans-to-cis rate constants of isomerizations (ktc) follows the order 4<5≈6<3. A 200-fold rate difference is observed for diastereomeric amides 3 and 4.
The effects of temperature on kct and ktc were analyzed by Eyring plots (FIG. 6) (Eyring, 1935). The values for ΔH^‡ and ΔS^‡ (Table 5) were calculated from linear least squares fits of the data in these plots (Eyring, 1935). […] However, the activation enthalpy is partially compensated by a higher activation entropy.
Inversion-magnetization transfer NMR experiments were performed on Bruker AMX500 spectrometer equipped with selective excitation units, and ^1H and broadband heteronuclear probes. Samples of 3-6 were prepared at a concentration of 0.01 M in D2O. The rate of prolyl peptide bond isomerization can not be detected by this method at room temperature. Experiments were therefore conducted at elevated temperature at 356 K. Temperature settings of the spectrometer were calibrated to within 1° C. by reference to a glycol standard.

[5] = Thermodynamics of isomerization, Kt/c versus temperature, Van't Hoff plots; format: physicochemical; details: D2O; for ΔG° (298K) of isomerization: in kcal/mol; for ΔH° of isomerization / ΔS° of isomerization: Van't Hoff plots
Method: Thermodynamics The effects of temperature on the values Kt/c=(kct/ktc) for each compound were measured directly by NMR spectroscopy over the temperature range 25-93° C. The resulting data were analyzed by Van't Hoff plots (FIG. 7). […] In this case the major cis isomer becomes increasingly favored as the temperature decreases. Values for ΔH^o and ΔS^o were calculated from linear least-squares fits of these plots (Table 6).
as §1

[6] = Cis population and equilibrium constant Kc/t of GlcTProLysC peptide mimics by 1H NMR, pH effect; format: physicochemical; details: HCl salt; for Equilibrium constant Kc/t / Cis population: in D2O; for Equilibrium constant Kc/t: ±0.04; for Cis population: ±3%; for Kc/t: D2O
Method: The equilibrium constants Kc/t for compounds 3-22 to 3-25 are shown in Table 15 and were determined by integrating and averaging as many distinct proton signals as possible for both the major and minor isomers in the ^1H NMR spectra (Taylor et al., 2003). […] It appears that the stereochemistry at C-5′ has a profound effect on the equilibrium of isomerization. Also, the cis prolyl amide population in esters 3-22 and 3-23, was generally lower than N′-methylamides 3-24 and 3-25. Taylor and co-workers have proposed that the trans conformation of esters is stabilized relative to amides as a result of increased electron donation from the oxygen lone pair of the N-terminal amide carbonyl group to the antibonding orbital of the prolyl C-terminal carbonyl group (FIG. 20) (Taylor et al., 2003).
Effect of pH. Since compound 3-22 to 3-25 have an ionizable amino group, the inventors were interested to study the influence of the ionization state on Kt/c. […] The inventors selected three buffer ranges: pH=2.6, 7.4 and 12.4, to examine the pH effect on the isomerization of 3-24 and 3-25 (Table 16).
Measurement of equilibrium constant: The calculation was based on the integration of well-resolved peaks of the γ-protons, N-terminal methyl group and α-proton in ^1H NMR.

SMILES	Equilibrium constant Kc/t [6]	Cis population [6]	Trans/cis ratio Kt/c [3]	cis % isomer [3]	Rate constant kct (cis to trans) ([4]; D2O at 83 °C)	Activation enthalpy ΔH‡ cis to trans ([4]; Eyring plots in D2O)	Activation enthalpy ΔH‡ trans to cis ([4]; Eyring plots in D2O)	Activation entropy ΔS‡ cis to trans ([4]; Eyring plots in D2O)	Activation entropy ΔS‡ trans to cis ([4]; Eyring plots in D2O)	Free energy of activation ΔG‡ cis to trans [4]	Free energy of activation ΔG‡ trans to cis [4]	Rate constant ktc (trans to cis) ([4]; D2O at 83 °C)	ΔG° (298K) of isomerization [5]	ΔH° of isomerization [5]	ΔS° of isomerization [5]	further results
CC(=O)N[C@@H](CC(C)C)C(=O)N[C@H](Cc1ccccc1)C(=O)N1CCC[C@H]1C(=O)N[C@H](C(=O)N(C)C)C(C)C [Compound 2-16, Ac-Leu-D-Phe-Pro-Val-NMe2] (Ac-L[dF]PV-NMe2)	–	–	–	–	–	–	–	–	–	–	–	–	–	–	–	Concentration at which peptide aggregated [1]: ≥ 10 mM; Equilibrium constant Kt/c ([2]; CD2Cl2, 500 MHz NMR at 25° C.): 19.00; Equilibrium constant Kt/c ([2]; CD3OD, 500 MHz NMR at 25° C.): 3.17; Equilibrium constant Kt/c ([2]; DMSO-d6, 500 MHz NMR at 25° C.): 1.32
COC(=O)C1N(C(C)=O)C(CO)CC12OC(CO)C(O)C(O)C2O [Compound 3, (1S)-2,3,4,6-Tetrahydroxy-1′-N-acetyl-5′(S)-hydroxymethylene-spiro[1,5-anhydro-D-glucitol-1,3′-L-prolinemethyl ester]]	–	–	3.35	23%	0.18 ± 0.01 s⁻¹	26.1 kcal/mol	26.4 kcal/mol	11.1 cal/mol.K	10.2 cal/mol.K	22.8 kcal/mol	23.4 kcal/mol	0.08 ± 0.004 s⁻¹	−0.80 ± 0.13	-1.67 ± 0.06 kcal/mol	−2.93 ± 0.20 cal/mol•K	Experimental distribution of cis conformers [3]: 23±3%; Experimental distribution of trans conformers [3]: 77 ± 3%; Increase in activation enthalpy compared to compounds 4-6 ([4]; Eyring plots in D2O): 3.9 to 6.8 kcal/mol
COC(=O)C1N(C(C)=O)C(CO)CC12OC(CO)C(O)C(O)C2O [Compound 4, (1S)-2,3,4,6-Tetrahydroxy-1′-N-acetyl-5′(R)-hydroxymethylene-spiro[1,5-anhydro-D-glucitol-1,3′-L-prolinemethyl ester]]	–	–	0.88	53%	16.19 ± 1.19 s⁻¹	19.8 kcal/mol	19.6 kcal/mol	2.2 cal/mol.K	1.9 cal/mol.K	19.1 kcal/mol	19.0 kcal/mol	19.82 ± 1.45 s⁻¹	0.19 ± 0.11	0.50 ± 0.06 kcal/mol	1.05 ± 0.16 cal/mol•K	Experimental distribution of cis conformers [3]: 53±3%; Experimental distribution of trans conformers [3]: 47 ± 3%; Rate acceleration for kct compared to parent compounds 5 and 6 ([4]; D2O at 83 °C): ~6 fold; Rate acceleration for ktc compared to parent compounds 5 and 6 ([4]; D2O at 83 °C): ~20 fold
COC(=O)[C@@H]1[C@@H](O)CCN1C(C)=O [Compound 5, N-acetyl-3(S)-hydroxy-L-proline methyl ester, reference compound]	–	–	4.88	17%	2.63 ± 0.28 s⁻¹	21.6 kcal/mol	21.5 kcal/mol	3.6 cal/mol.K	1.6 cal/mol.K	20.5 kcal/mol	21.1 kcal/mol	1.02 ± 0.09 s⁻¹	−0.95 ± 0.05	-1.09 ± 0.03 kcal/mol	−0.48 ± 0.08 cal/mol•K	–
COC(=O)[C@@H]1CCCN1C(C)=O [Compound 6, N-acetyl-L-proline methyl ester, reference compound]	–	–	6.14	14%	2.95 ± 0.12 s⁻¹	21.9 kcal/mol	22.5 kcal/mol	4.8 cal/mol.K	3.9 cal/mol.K	20.5 kcal/mol	21.4 kcal/mol	0.82 ± 0.04 s⁻¹	−1.01 ± 0.08	-1.21 ± 0.04 kcal/mol	−0.71 ± 0.12 cal/mol•K	–
CNC(=O)C1N(C(C)=O)C(CO)CC12OC(CO)C(O)C(O)C2O [Compound 7, (1S)-2,3,4,6-Tetrahydroxy-1′-N-acetyl-5′(S)-hydroxymethylene-spiro[1,5-anhydro-D-glucitol-1,3′-L-prolinemethylamide]]	–	–	–	–	–	–	–	–	–	–	–	–	–	–	–	Cis population of prolyl N-acetyl N′-methylamides [3]: 38% and 38±3%
CNC(=O)C1N(C(C)=O)C(CO)CC12OC(CO)C(O)C(O)C2O [Compound 8, (1S)-2,3,4,6-tetrahydroxy-1′-N-acetyl-5′(R)-hydroxymethylene-spiro[1,5-anhydro-D-glucitol-1,3′-L-prolinemethylamide]]	–	–	–	–	–	–	–	–	–	–	–	–	–	–	–	Cis population of prolyl N-acetyl N′-methylamides [3]: 74% and 74±3%

Continued, in another order:

Equilibrium constant Kc/t [6]	Cis population [6]	SMILES	Trans/cis ratio Kt/c [3]	cis % isomer [3]	Rate constant kct (cis to trans) ([4]; D2O at 83 °C)	Activation enthalpy ΔH‡ cis to trans ([4]; Eyring plots in D2O)	Activation enthalpy ΔH‡ trans to cis ([4]; Eyring plots in D2O)	Activation entropy ΔS‡ cis to trans ([4]; Eyring plots in D2O)	Activation entropy ΔS‡ trans to cis ([4]; Eyring plots in D2O)	Free energy of activation ΔG‡ cis to trans [4]	Free energy of activation ΔG‡ trans to cis [4]	Rate constant ktc (trans to cis) ([4]; D2O at 83 °C)	ΔG° (298K) of isomerization [5]	ΔH° of isomerization [5]	ΔS° of isomerization [5]	further results
1.22	55%	COC(=O)C1N(C(C)=O)C(CO)CC12OC(CN)C(O)C(O)C2O.Cl [Compound 3-22, (1S)-6-Amino-6-deoxy-1′-N-acetyl-5′(R)-hydroxymethylene-spiro[1,5-anhydro-D-glucitol-1,3′-L-prolinemethyl ester] HCl salt]	–	–	–	–	–	–	–	–	–	–	–	–	–	–
0.23	19%	COC(=O)C1N(C(C)=O)C(CO)CC12OC(CN)C(O)C(O)C2O.Cl [Compound 3-23, (1S)-6-Amino-6-deoxy-1′-N-acetyl-5′(S)-hydroxymethylene-spiro[1,5-anhydro-D-glucitol-1,3′-L-prolinemethyl ester] HCl salt]	–	–	–	–	–	–	–	–	–	–	–	–	–	–
3.03	75%	CNC(=O)C1N(C(C)=O)C(CO)CC12OC(CN)C(O)C(O)C2O.Cl [Compound 3-24, (1S)-6-Amino-6-deoxy-1′-N-acetyl-5′(R)-hydroxymethylene-spiro[1,5-anhydro-D-glucitol-1,3′-L-prolinemethyl amide] HCl salt]	–	–	–	–	–	–	–	–	–	–	–	–	–	Kc/t ([6]; pD 2.6, ±0.04): 3.03; Kc/t ([6]; pD 7.4, ±0.04): 3.03; Kc/t ([6]; pD 12.4, ±0.04): 2.70
0.56	36%	CNC(=O)C1N(C(C)=O)C(CO)CC12OC(CN)C(O)C(O)C2O.Cl [Compound 3-25, (1S)-6-Amino-6-deoxy-1′-N-acetyl-5′(S)-hydroxymethylene-spiro[1,5-anhydro-D-glucitol-1,3′-L-prolinemethyl amide] HCl salt]	–	–	–	–	–	–	–	–	–	–	–	–	–	Kc/t ([6]; pD 2.6, ±0.04): 0.61; Kc/t ([6]; pD 7.4, ±0.04): 0.56; Kc/t ([6]; pD 12.4, ±0.04): 0.61

Reference: US20100256333A1, “Peptide-Based Beta Turn Mimetics” (UNIVERSITY OF MANITOBA, priority 2009, published 2010)
